# Entries after “also recorded” stand apart in the source; their conditions may differ.
# Experiment: Treatment-emergent adverse events (MedDRA, NCI-CTCAE v4.03), safety populations
# Type: in vivo, human
# Experimental: Overall safety in Parts A and B was assessed by tabulating TEAEs, coded using the Medical Dictionary for Regulatory Activities (MedDRA) version 22.1, and graded according to NCI-CTCAE v4.03 criteria. TEAEs were classified as related or unrelated to amcenestrant therapy based upon the local investigating physician’s clinical judgment. The safety population included all patients exposed to at least one dose of the study treatment. Results were analyzed using descriptive statistics.
smiles,measurement,setting,value
"O=C(O)c1ccc2c(c1)CCCC(c1ccc(Cl)cc1Cl)=C2c1ccc(O[C@H]2CCN(CCCF)C2)cc1 [amcenestrant, 6-(2,4-Dichlorophenyl)−5-[4-[(3S)−1-(3-fluoropropyl)pyrrolidin-3-yl]oxyphenyl]−8,9-dihydro-7H-benzo[7]annulene-2-carboxylic acid]","Hypoesthesia, TEAEs, Grade 2","Part A, 20-600 mg QD (N = 16)",0 n (%)
same,"Hypoesthesia, TEAEs, Grade ≥3","Part A, 20-600 mg QD (N = 16)",0 n (%)
same,"Hypoesthesia, Treatment-related TEAEs, All Grades","Part A, 20-600 mg QD (N = 16)",0 n (%)
same,"Hypoesthesia, Treatment-related TEAEs, Grade 1","Part A, 20-600 mg QD (N = 16)",0 n (%)
same,"Hypoesthesia, Treatment-related TEAEs, Grade 2","Part A, 20-600 mg QD (N = 16)",0 n (%)
same,"Hypoesthesia, Treatment-related TEAEs, Grade ≥3","Part A, 20-600 mg QD (N = 16)",0 n (%)
same,"Nausea, TEAEs, All grades","Part A, 20-600 mg QD (N = 16)",6 (37.5) n (%)
same,"Nausea, TEAEs, Grade 1","Part A, 20-600 mg QD (N = 16)",3 (18.8) n (%)
same,"Nausea, TEAEs, Grade 2","Part A, 20-600 mg QD (N = 16)",3 (18.8) n (%)
same,"Nausea, TEAEs, Grade ≥3","Part A, 20-600 mg QD (N = 16)",0 n (%)
same,"Nausea, Treatment-related TEAEs, All Grades","Part A, 20-600 mg QD (N = 16)",4 (25.0) n (%)
same,"Nausea, Treatment-related TEAEs, Grade 1","Part A, 20-600 mg QD (N = 16)",3 (18.8) n (%)
same,"Nausea, Treatment-related TEAEs, Grade 2","Part A, 20-600 mg QD (N = 16)",1 (6.3) n (%)
same,"Nausea, Treatment-related TEAEs, Grade ≥3","Part A, 20-600 mg QD (N = 16)",0 n (%)
same,"Night sweat, TEAEs, All grades","Part A, 20-600 mg QD (N = 16)",3 (18.8) n (%)
same,"Night sweat, TEAEs, Grade 1","Part A, 20-600 mg QD (N = 16)",3 (18.8) n (%)
same,"Night sweat, TEAEs, Grade 2","Part A, 20-600 mg QD (N = 16)",0 n (%)
same,"Night sweat, TEAEs, Grade ≥3","Part A, 20-600 mg QD (N = 16)",0 n (%)
same,"Night sweat, Treatment-related TEAEs, All Grades","Part A, 20-600 mg QD (N = 16)",3 (18.8) n (%)
same,"Night sweat, Treatment-related TEAEs, Grade 1","Part A, 20-600 mg QD (N = 16)",3 (18.8) n (%)
same,"Night sweat, Treatment-related TEAEs, Grade 2","Part A, 20-600 mg QD (N = 16)",0 n (%)
same,"Night sweat, Treatment-related TEAEs, Grade ≥3","Part A, 20-600 mg QD (N = 16)",0 n (%)
same,"Urinary tract infection, TEAEs, All grades","Part A, 20-600 mg QD (N = 16)",4 (25.0) n (%)
same,"Urinary tract infection, TEAEs, Grade 1","Part A, 20-600 mg QD (N = 16)",0 n (%)
same,"Urinary tract infection, TEAEs, Grade 2","Part A, 20-600 mg QD (N = 16)",3 (18.8) n (%)
same,"Urinary tract infection, TEAEs, Grade ≥3","Part A, 20-600 mg QD (N = 16)",1 (6.3) n (%)
same,"Urinary tract infection, Treatment-related TEAEs, All Grades","Part A, 20-600 mg QD (N = 16)",0 n (%)
same,"Urinary tract infection, Treatment-related TEAEs, Grade 1","Part A, 20-600 mg QD (N = 16)",0 n (%)
same,"Urinary tract infection, Treatment-related TEAEs, Grade 2","Part A, 20-600 mg QD (N = 16)",0 n (%)
same,"Urinary tract infection, Treatment-related TEAEs, Grade ≥3","Part A, 20-600 mg QD (N = 16)",0 n (%)
same,cardiac non-treatment-related TEAEs,"Part A, Grade 1 palpitations and Grade 2 prolonged QT interval",2 patients
same,eye disorder treatment-related TEAE,"Part A, Grade 1 photophobia",1 patient
same,serious TEAEs,"Part A, associated with disease progression, considered unrelated to amcenestrant",three patients
same,TEAE leading to treatment discontinuation,Part B,one Grade ≥3 TEAE of pneumonia led to treatment discontinuation
same,eye disorder non-treatment-related TEAEs,Part B,Three eye disorder non-treatment-related TEAEs were reported in two patients
same,serious TEAEs related to amcenestrant,"Part B / overall, by investigator",none were considered related to amcenestrant; also recorded: No serious AEs were considered treatment-related
same,"ALT increased, TEAEs, All grades","Part B, 400 mg QD (N = 49)",3 (6.1) n (%)
same,"ALT increased, TEAEs, Grade 1","Part B, 400 mg QD (N = 49)",0 n (%)
same,"ALT increased, TEAEs, Grade 2","Part B, 400 mg QD (N = 49)",0 n (%)
same,"ALT increased, TEAEs, Grade ≥3","Part B, 400 mg QD (N = 49)",3 (6.1) n (%)
same,"ALT increased, Treatment-related TEAEs, All Grades","Part B, 400 mg QD (N = 49)",0 n (%)
same,"ALT increased, Treatment-related TEAEs, Grade 1","Part B, 400 mg QD (N = 49)",0 n (%)
same,"ALT increased, Treatment-related TEAEs, Grade 2","Part B, 400 mg QD (N = 49)",0 n (%)
same,"ALT increased, Treatment-related TEAEs, Grade ≥3","Part B, 400 mg QD (N = 49)",0 n (%)
same,"AST increased, TEAEs, All grades","Part B, 400 mg QD (N = 49)",3 (6.1) n (%)
same,"AST increased, TEAEs, Grade 1","Part B, 400 mg QD (N = 49)",0 n (%)
same,"AST increased, TEAEs, Grade 2","Part B, 400 mg QD (N = 49)",0 n (%)
same,"AST increased, TEAEs, Grade ≥3","Part B, 400 mg QD (N = 49)",3 (6.1) n (%)
same,"AST increased, Treatment-related TEAEs, All Grades","Part B, 400 mg QD (N = 49)",0 n (%)
same,"AST increased, Treatment-related TEAEs, Grade 1","Part B, 400 mg QD (N = 49)",0 n (%)
same,"AST increased, Treatment-related TEAEs, Grade 2","Part B, 400 mg QD (N = 49)",0 n (%)
same,"AST increased, Treatment-related TEAEs, Grade ≥3","Part B, 400 mg QD (N = 49)",0 n (%)
same,"Abdominal pain upper, TEAEs, All grades","Part B, 400 mg QD (N = 49)",6 (12.2) n (%)
same,"Abdominal pain upper, TEAEs, Grade 1","Part B, 400 mg QD (N = 49)",2 (4.1) n (%)
same,"Abdominal pain upper, TEAEs, Grade 2","Part B, 400 mg QD (N = 49)",4 (8.2) n (%)
same,"Abdominal pain upper, TEAEs, Grade ≥3","Part B, 400 mg QD (N = 49)",0 n (%)
same,"Abdominal pain upper, Treatment-related TEAEs, All Grades","Part B, 400 mg QD (N = 49)",1 (2.0) n (%)
same,"Abdominal pain upper, Treatment-related TEAEs, Grade 1","Part B, 400 mg QD (N = 49)",1 (2.0) n (%)
same,"Abdominal pain upper, Treatment-related TEAEs, Grade 2","Part B, 400 mg QD (N = 49)",0 n (%)
same,"Abdominal pain upper, Treatment-related TEAEs, Grade ≥3","Part B, 400 mg QD (N = 49)",0 n (%)
same,"Abdominal pain, TEAEs, All grades","Part B, 400 mg QD (N = 49)",11 (22.4) n (%)
same,"Abdominal pain, TEAEs, Grade 1","Part B, 400 mg QD (N = 49)",8 (16.3) n (%)
same,"Abdominal pain, TEAEs, Grade 2","Part B, 400 mg QD (N = 49)",3 (6.1) n (%)
same,"Abdominal pain, TEAEs, Grade ≥3","Part B, 400 mg QD (N = 49)",0 n (%)
same,"Abdominal pain, Treatment-related TEAEs, All Grades","Part B, 400 mg QD (N = 49)",2 (4.1) n (%)
same,"Abdominal pain, Treatment-related TEAEs, Grade 1","Part B, 400 mg QD (N = 49)",2 (4.1) n (%)
same,"Abdominal pain, Treatment-related TEAEs, Grade 2","Part B, 400 mg QD (N = 49)",0 n (%)
same,"Abdominal pain, Treatment-related TEAEs, Grade ≥3","Part B, 400 mg QD (N = 49)",0 n (%)
same,"Any TEAE, TEAEs, All grades","Part B, 400 mg QD (N = 49)",49 (100) n (%)
same,"Any TEAE, TEAEs, Grade 1","Part B, 400 mg QD (N = 49)",11 (22.4) n (%)
same,"Any TEAE, TEAEs, Grade 2","Part B, 400 mg QD (N = 49)",22 (44.9) n (%)
same,"Any TEAE, TEAEs, Grade ≥3","Part B, 400 mg QD (N = 49)",16 (32.7) n (%)
same,"Any TEAE, Treatment-related TEAEs, All Grades","Part B, 400 mg QD (N = 49)",26 (53.1) n (%)
same,"Any TEAE, Treatment-related TEAEs, Grade 1","Part B, 400 mg QD (N = 49)",21 (42.9) n (%)
same,"Any TEAE, Treatment-related TEAEs, Grade 2","Part B, 400 mg QD (N = 49)",5 (10.2) n (%)
same,"Any TEAE, Treatment-related TEAEs, Grade ≥3","Part B, 400 mg QD (N = 49)",0 n (%)
same,"Arthralgia, TEAEs, All grades","Part B, 400 mg QD (N = 49)",10 (20.4) n (%)
same,"Arthralgia, TEAEs, Grade 1","Part B, 400 mg QD (N = 49)",7 (14.3) n (%)
same,"Arthralgia, TEAEs, Grade 2","Part B, 400 mg QD (N = 49)",3 (6.1) n (%)
same,"Arthralgia, TEAEs, Grade ≥3","Part B, 400 mg QD (N = 49)",0 n (%)
same,"Arthralgia, Treatment-related TEAEs, All Grades","Part B, 400 mg QD (N = 49)",4 (8.2) n (%)
same,"Arthralgia, Treatment-related TEAEs, Grade 1","Part B, 400 mg QD (N = 49)",3 (6.1) n (%)
same,"Arthralgia, Treatment-related TEAEs, Grade 2","Part B, 400 mg QD (N = 49)",1 (2.0) n (%)
same,"Arthralgia, Treatment-related TEAEs, Grade ≥3","Part B, 400 mg QD (N = 49)",0 n (%)
same,"Asthenia, TEAEs, All grades","Part B, 400 mg QD (N = 49)",10 (20.4) n (%)
same,"Asthenia, TEAEs, Grade 1","Part B, 400 mg QD (N = 49)",7 (14.3) n (%)
same,"Asthenia, TEAEs, Grade 2","Part B, 400 mg QD (N = 49)",3 (6.1) n (%)
same,"Asthenia, TEAEs, Grade ≥3","Part B, 400 mg QD (N = 49)",0 n (%)
same,"Asthenia, Treatment-related TEAEs, All Grades","Part B, 400 mg QD (N = 49)",2 (4.1) n (%)
same,"Asthenia, Treatment-related TEAEs, Grade 1","Part B, 400 mg QD (N = 49)",2 (4.1) n (%)
same,"Asthenia, Treatment-related TEAEs, Grade 2","Part B, 400 mg QD (N = 49)",0 n (%)
same,"Asthenia, Treatment-related TEAEs, Grade ≥3","Part B, 400 mg QD (N = 49)",0 n (%)

# Source: article PMC9284491 (Nature Communications, 2022)
